Results: patent US20050215543A1, “Methods of treating HIV infection” (priority 2004, published 2005)
pEC50: −log10 of the molar value.

Columns and labels:
HIV-1 LAI = assay: microbe, parasite or virus in culture; conditions: for Combination Indices at % HIV Inhibition (Confidence Interval) 50%: 50% HIV inhibition; for Combination Indices at % HIV Inhibition (Confidence Interval) 50% / Combination Indices at % HIV Inhibition (Confidence Interval) 75% / Combination Indices at % HIV Inhibition (Confidence Interval) 90%: 95% CI in parenthesis; for Combination Indices at % HIV Inhibition (Confidence Interval) 75%: 75% HIV inhibition; for Combination Indices at % HIV Inhibition (Confidence Interval) 90%: 90% HIV inhibition
Protocol: Virus and cell lines. The T-cell lines, MT-2 and PM-1 were obtained through the AIDS Research and Reference Reagent Program, NIAID, and were contributed by Dr. D. Richman and Dr. R. Gallo, respectively. Both cell lines were cultured in RPMI 1640 medium supplemented with 10% fetal bovine serum, 2 mM L-glutamine and sub-cultured twice a week. The LAI strain of HIV-1 was obtained from the Fred Hutchinson Cancer Research Center, and the Bal strain was from NIH. Both virus stocks were amplified and titered in MT-2 cells (LAI) and PM-1 cells (Bal) using a virus infectivity assay.
(§1) Drug Susceptibility and Cytotoxicity Assays. For drug susceptibility assays, MT-2 cells were infected with HIV-1 LAI (or PM-1 cells with HIV-1 Bal) at an MOI of 0.005, and seeded into 96-well microtiter plates (0.1×10^6 cells/ml) containing serial dilutions of test compounds. […] Each drug ratio consisted of an array of 3-fold serial dilutions, and was performed in quadruplicate. The plates were incubated at 37° C./5% CO2. The MT-2 cells infected with HIV-1 LAI were incubated for 5 days. On day-five post-infection, 20 μl from each well was harvested and quantitated by a reverse transcriptase (RT) assay, or in samples involving non-nucleoside RT inhibitors, an MTS assay. The PM-1 cells infected with HIV-1 Bal and used for studying the combinations with CCR5 inhibitors were incubated for six days. On day-six post-infection, 20 μl from each well was harvested, 20- and 50-fold diluted and quantitated by p24 assay. Cytotoxicity assays were performed using uninfected cells, exposed to the same drug combinations, and incubated for six days. Cell viability was determined by an XTT assay. The CC50 values were calculated by using the exponential form of the median effect equation as mentioned below for calculation of EC50.
Analysis of Drug Combination Effects. For determination of CI values, drugs were diluted in a fixed ratio and multiple ratios were analyzed. The drug serial dilutions spanned a range of concentrations near the EC50 value of each compound, so that equivalent antiviral activities could be compared. Concentration-response curves were estimated for each individual drug and every combination using the median-effect equation. The equation was fit using a nonlinear regression routine (Proc Nlin) in PC SAS version 8.01 (SAS Institute Inc., SAS Version 8.01, Cary, N.C.: SAS Institute Inc., 1990).
In this equation, Fa stands for “fraction affected,” and represents the fraction of the viral load that has been inactivated. […] ED50 is drug concentration that is expected to reduce the amount of virus by 50%, and m is a parameter that reflects the slope of the concentration-response curve.
To assess antiviral effects of different drug combination treatments, combination indices (CIs) were calculated according to Chou and Rideout. The combination index was computed as CI=[D]1/[Dm]1+[D]2/[Dm]2
In this equation [Dm]1 and [Dm]2 are the concentrations of drugs that would individually produce a specific level of effect, while [D]1 and [D]2 are the concentrations of drugs in combination that would produce the same level of effect.
Theoretically, additivity is implied if the CI is equal to one, synergy if the CI is less than one, and antagonism if the CI is greater than one. […] At best, we can construct a range that contains the likely values for the CI, given the noise in the data. In this report, these ranges are reported in parentheses next to each point estimate of the CI. […] If the range fell entirely above 1.0, we would infer antagonistic behavior. If the range were to include 1.0, we would infer additivity.
In carrying out the combination experiments below, the EC50 for Compound 1 and each comparator compound was determined during the course of each study, and used in the subsequent data analysis.

uninfected cells = assay: Cytotoxicity assay of drug combinations, uninfected cells, XTT assay; assay type: cell-based; conditions: combination with Compound 1 at the highest concentrations tested, 6 days
Protocol: as §1, with “Assays.” for “Assays. For drug susceptibility assays, MT-2 cells were infected with HIV-1 LAI (or PM-1 cells with HIV-1 Bal) at an MOI of 0.005, and seeded into 96-well microtiter plates (0.1×10^6 cells/ml) containing serial dilutions of test compounds.”, “The MT-2 cells infected with HIV-1 LAI were incubated for 5 days.” left out

[1] = combination with Compound 1, EC50 ratio 1:1 (Compound 1:comparator)
[2] = combination with Compound 1, EC50 ratio 1:1
[3] = combination with Compound 1, EC50 ratio 1:2.5
[4] = combination with Compound 1, EC50 ratio 2.5:1

Row | Compound | Combination Indices at % HIV Inhibition (Confidence Interval) 50% (HIV-1 LAI; [1]) | Combination Indices at % HIV Inhibition (Confidence Interval) 75% (HIV-1 LAI; [2]) | Combination Indices at % HIV Inhibition (Confidence Interval) 90% (HIV-1 LAI; [2]) | Combination Indices at % HIV Inhibition (Confidence Interval) 50% (HIV-1 LAI; [3]) | Combination Indices at % HIV Inhibition (Confidence Interval) 75% (HIV-1 LAI; [3]) | Combination Indices at % HIV Inhibition (Confidence Interval) 90% (HIV-1 LAI; [3]) | Combination Indices at % HIV Inhibition (Confidence Interval) 50% (HIV-1 LAI; [4]) | Combination Indices at % HIV Inhibition (Confidence Interval) 75% (HIV-1 LAI; [4]) | Combination Indices at % HIV Inhibition (Confidence Interval) 90% (HIV-1 LAI; [4]) | pEC50 (HIV-1 LAI; single drug, MT-2 cells, HIV-1 LAI, MOI 0.005, 5 days, RT assay) | cytotoxicity of the drug combination (uninfected cells) | pEC50 (HIV-1 LAI; Human immunodeficiency virus 1, MT2, 120 h)
1 | enfuvirtide | 0.53 (0.46, 0.59) | 0.51 (0.42, 0.59) | 0.57 (0.42, 0.72) | 0.27 (0.21, 0.32) | 0.32 (0.22, 0.42) | 0.43 (0.22, 0.64) | 0.41 (0.30, 0.51) | 0.57 (0.37, 0.78) | 0.90 (0.36, 1.44) | 8.52 | No significant cytotoxicity | 
2 | CON(Cc1ccc(F)cc1)C(=O)C=C(O)C(=O)O [Compound 2, 3-[(4-fluorobenzyl)methoxycarbamoyl]-2-hydroxyacrylic acid] | 0.92 (0.77, 1.06) | 0.90 (0.70, 1.10) | 0.89 (0.58, 1.21) | 0.71 (0.60, 0.82) | 0.66 (0.51, 0.80) | 0.61 (0.40, 0.82) | 0.41 (0.36, 0.47) | 0.41 (0.33, 0.48) | 0.40 (0.28, 0.52) |  | No significant cytotoxicity | 7.41
